Measured values taken from ChEMBL document CHEMBL1201862, “PubChem BioAssay data set” (2004).
Activity calls are given as the source filed them.

What was measured:
[1] = biological target: T1, Tyrosine-protein phosphatase non-receptor type 7 (Homo sapiens, UniProt P35236); format: functional
T1 sequence (P35236 whole entry): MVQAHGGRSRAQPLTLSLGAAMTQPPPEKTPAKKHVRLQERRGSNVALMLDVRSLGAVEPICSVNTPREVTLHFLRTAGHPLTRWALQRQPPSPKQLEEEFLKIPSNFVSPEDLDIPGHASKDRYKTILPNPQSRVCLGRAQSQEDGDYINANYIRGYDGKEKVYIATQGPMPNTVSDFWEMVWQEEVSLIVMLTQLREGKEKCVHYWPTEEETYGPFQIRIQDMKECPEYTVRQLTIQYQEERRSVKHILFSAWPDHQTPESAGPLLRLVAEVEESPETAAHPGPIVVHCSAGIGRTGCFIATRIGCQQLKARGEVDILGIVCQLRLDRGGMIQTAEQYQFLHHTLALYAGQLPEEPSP

[2] = biological target: Glyceraldehyde-3-phosphate dehydrogenase (Homo sapiens, UniProt P04406)
Sequence of Glyceraldehyde-3-phosphate dehydrogenase (P04406 whole entry): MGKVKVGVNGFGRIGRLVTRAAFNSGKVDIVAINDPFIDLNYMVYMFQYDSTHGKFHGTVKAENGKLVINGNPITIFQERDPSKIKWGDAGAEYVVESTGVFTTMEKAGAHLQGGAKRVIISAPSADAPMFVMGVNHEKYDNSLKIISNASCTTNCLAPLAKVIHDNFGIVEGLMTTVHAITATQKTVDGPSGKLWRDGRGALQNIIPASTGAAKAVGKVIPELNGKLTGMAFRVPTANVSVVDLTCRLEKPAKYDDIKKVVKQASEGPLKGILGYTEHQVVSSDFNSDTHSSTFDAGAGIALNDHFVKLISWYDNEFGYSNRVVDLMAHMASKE

[3] = biological target: T2, Dual specificity protein phosphatase 6 (Rattus norvegicus, UniProt Q64346)
T2 sequence (Q64346 whole entry): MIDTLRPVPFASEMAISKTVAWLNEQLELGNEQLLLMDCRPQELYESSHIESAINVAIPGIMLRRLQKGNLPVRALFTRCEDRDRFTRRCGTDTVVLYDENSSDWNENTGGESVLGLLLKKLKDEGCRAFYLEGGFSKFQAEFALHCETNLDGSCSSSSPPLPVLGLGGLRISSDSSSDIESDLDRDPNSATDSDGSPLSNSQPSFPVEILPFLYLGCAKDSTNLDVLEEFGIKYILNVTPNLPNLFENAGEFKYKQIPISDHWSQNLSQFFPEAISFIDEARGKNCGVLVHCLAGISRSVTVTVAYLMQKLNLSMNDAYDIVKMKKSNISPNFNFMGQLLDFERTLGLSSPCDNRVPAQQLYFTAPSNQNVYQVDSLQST

[4] = biological target: T2, Dual specificity protein phosphatase 6; format: functional
[5] = insulin promoter down-regulators in MIN6 cells, imaging, high-content screening, mouse beta cells (AID 1628); format: functional
[6] = cytotoxicity in MIN6 insulinoma cells, dose response, cytotoxicity control, cell-based, mouse insulinoma (AID 2122); format: functional;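 further: confirmatory high-throughput counterscreen run to flag cytotoxic compounds; mouse MIN-6 beta cells carrying an insulin promoter eGFP reporter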
[7] = inhibitors of intracellular T. cruzi replication, confirmation, NIH3T3 host cells, beta-gal luminescence (AID 2044); format: functional, cell-based;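 further: intracellular parasites grown in NIH/3T3 mouse fibroblasts as host cells; luminescent beta-galactosidase reporter signal from transgenic T. cruzi replicating inside host cells; inhibitors lower the luminescence signal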
[8] = cytotoxicity toward NIH3T3 fibroblasts, dose response, counter-screen, cell-based, ATP luminescence, mouse fibroblasts (AID 2010); format: functional;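 further: cells exposed to compound for about 90 hours before reading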
[9] = Luminescence Cell-Based Dose Retest to Confirm Inhibitors of Cancer Stem Cells. [Related pubchem assays (depositor defined):AID2717, AID2721]; format: functional; settings: Homo sapiens
[10] = cytotoxicity in HMLE control line with eGFP shRNA, dose response, counter-screen for HMLE_sh_ECad selective toxicity project, cell-based, HMLE_sh_eGFP, luminescence (AID 463074); format: functional, Homo sapiens;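 further: HMLE human mammary epithelial cells expressing control shRNA against eGFP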
[11] = biological target: Dual specificity tyrosine-phosphorylation-regulated kinase 1A (Rattus norvegicus, UniProt Q63470); format: biochemical, Homo sapiens
Escherichia coli = assay: microbe, parasite or virus in culture
ORF 73 = ORF 73 (Human herpesvirus 8, UniProt O40947); assay: inhibitors of C-LANA binding to LBS DNA, dose response, biochemical, fluorescence polarization, cherry-picked samples (AID 504725); set-up: species or system Human gammaherpesvirus 8;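 further: fluorescence polarization of a labeled DNA duplex reporting LANA DNA binding; potency is for inhibitors that block LANA binding to the DNA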
Sequence of ORF 73 (O40947 whole entry): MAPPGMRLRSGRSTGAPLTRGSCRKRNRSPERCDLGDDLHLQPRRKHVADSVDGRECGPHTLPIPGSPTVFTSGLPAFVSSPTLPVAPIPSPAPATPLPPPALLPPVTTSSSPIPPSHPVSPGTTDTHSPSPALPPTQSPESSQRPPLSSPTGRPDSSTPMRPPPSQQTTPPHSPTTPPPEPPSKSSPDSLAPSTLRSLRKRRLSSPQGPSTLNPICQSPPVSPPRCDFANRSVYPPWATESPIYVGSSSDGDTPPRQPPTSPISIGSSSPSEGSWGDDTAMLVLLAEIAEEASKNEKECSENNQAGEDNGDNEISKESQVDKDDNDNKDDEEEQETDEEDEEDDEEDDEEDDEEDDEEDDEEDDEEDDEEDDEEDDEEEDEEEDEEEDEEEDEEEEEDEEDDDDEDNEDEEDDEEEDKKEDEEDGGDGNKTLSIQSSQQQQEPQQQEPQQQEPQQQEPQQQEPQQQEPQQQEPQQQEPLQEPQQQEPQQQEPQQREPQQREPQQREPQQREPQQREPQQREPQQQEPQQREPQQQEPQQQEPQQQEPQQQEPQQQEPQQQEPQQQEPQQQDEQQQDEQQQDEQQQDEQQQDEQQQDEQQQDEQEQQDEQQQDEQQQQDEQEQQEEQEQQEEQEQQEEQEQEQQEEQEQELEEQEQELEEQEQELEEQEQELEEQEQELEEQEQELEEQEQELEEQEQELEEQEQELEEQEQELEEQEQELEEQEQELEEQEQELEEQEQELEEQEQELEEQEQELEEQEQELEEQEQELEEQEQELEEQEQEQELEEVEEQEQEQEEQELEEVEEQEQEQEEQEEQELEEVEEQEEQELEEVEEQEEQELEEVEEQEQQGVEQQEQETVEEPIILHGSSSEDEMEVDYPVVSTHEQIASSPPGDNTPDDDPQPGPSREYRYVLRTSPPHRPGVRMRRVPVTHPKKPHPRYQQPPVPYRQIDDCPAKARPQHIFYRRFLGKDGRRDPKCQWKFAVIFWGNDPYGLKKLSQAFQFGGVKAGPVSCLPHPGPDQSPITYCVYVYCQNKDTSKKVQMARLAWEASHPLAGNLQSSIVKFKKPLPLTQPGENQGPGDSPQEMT

Keap1/Nrf2 = Keap1/Nrf2 (Homo sapiens, UniProt Q14145); assay: Keap1-Nrf2 protein-protein interaction inhibitors, dose response, biochemical, fluorescence polarization, cherry-picked samples (AID 588683)
Sequence of Keap1/Nrf2 (Q16236 whole entry): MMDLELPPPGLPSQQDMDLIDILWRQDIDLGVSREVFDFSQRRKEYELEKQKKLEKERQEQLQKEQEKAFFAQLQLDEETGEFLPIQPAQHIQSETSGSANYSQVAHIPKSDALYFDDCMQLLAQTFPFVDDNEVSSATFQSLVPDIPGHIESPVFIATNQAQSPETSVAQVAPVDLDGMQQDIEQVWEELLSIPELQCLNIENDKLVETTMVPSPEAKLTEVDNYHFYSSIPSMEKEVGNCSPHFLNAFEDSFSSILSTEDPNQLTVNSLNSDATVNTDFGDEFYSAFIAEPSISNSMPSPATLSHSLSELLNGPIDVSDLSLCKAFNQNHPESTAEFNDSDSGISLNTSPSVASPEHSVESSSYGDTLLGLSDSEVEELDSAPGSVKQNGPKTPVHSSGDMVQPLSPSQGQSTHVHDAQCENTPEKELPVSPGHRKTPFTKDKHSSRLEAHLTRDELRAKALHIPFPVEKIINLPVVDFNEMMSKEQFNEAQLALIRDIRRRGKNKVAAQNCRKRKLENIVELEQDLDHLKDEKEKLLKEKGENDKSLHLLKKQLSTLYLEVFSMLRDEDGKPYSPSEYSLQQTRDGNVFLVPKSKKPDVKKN
Sequence of Keap1/Nrf2 (Q14145 whole entry): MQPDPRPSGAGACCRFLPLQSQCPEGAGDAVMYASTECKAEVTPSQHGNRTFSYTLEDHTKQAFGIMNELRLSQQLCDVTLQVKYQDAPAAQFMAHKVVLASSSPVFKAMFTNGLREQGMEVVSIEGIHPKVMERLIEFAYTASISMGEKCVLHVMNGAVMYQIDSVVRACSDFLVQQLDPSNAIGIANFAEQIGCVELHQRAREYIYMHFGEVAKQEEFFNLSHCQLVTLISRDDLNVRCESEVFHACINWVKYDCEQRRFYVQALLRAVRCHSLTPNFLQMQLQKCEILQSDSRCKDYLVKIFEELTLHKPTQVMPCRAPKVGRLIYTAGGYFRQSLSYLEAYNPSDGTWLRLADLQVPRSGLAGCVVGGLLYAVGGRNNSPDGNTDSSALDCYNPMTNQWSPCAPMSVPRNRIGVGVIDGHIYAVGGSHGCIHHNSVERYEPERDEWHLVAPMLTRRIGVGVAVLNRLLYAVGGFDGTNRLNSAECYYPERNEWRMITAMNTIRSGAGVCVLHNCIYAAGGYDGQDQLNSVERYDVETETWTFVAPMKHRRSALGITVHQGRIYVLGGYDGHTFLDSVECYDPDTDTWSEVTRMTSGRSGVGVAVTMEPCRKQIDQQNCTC

HEK293 [12] = assay: cells; settings: Homo sapiens
HEK293 [13] = assay: cells; settings: Homo sapiens; remark: listed apart in the source
[14] = THP-1 cell cytotoxicity, dose response, cytotoxicity control for non-replicating M. tuberculosis project (AID 489025); format: functional
[15] = HepG2 cell cytotoxicity, dose response, cytotoxicity control for non-replicating M. tuberculosis project (AID 489018); format: functional; settings: Mycobacterium tuberculosis
[16] = cytotoxicity in NIH/3T3 mouse fibroblasts, dose response, cytotoxicity control, cell-based, mouse embryonic fibroblasts, dry powder, set 2 (AID 493247); format: functional; settings: Fibroblast
Trypanosoma cruzi = assay: growth inhibition of intracellular Trypanosoma cruzi, dose response, cell-based, plate reader, dry powder, set 3 (AID 493197); format: functional
[17] = Vero E6 cell cytotoxicity, dose response, cytotoxicity control for non-replicating M. tuberculosis project, secondary assay (AID 492998); format: functional, VeroE6; settings: Vero C1008
[18] = biological target: T3, Microphthalmia-associated transcription factor (Homo sapiens, UniProt O75030); assay: TRPM1 promoter luciferase signal decrease, dose response, MITF inhibitor project, cell-based, SK-MEL-5, cherry-picked, set 3 (AID 493073); format: functional
T3 sequence (O75030 whole entry): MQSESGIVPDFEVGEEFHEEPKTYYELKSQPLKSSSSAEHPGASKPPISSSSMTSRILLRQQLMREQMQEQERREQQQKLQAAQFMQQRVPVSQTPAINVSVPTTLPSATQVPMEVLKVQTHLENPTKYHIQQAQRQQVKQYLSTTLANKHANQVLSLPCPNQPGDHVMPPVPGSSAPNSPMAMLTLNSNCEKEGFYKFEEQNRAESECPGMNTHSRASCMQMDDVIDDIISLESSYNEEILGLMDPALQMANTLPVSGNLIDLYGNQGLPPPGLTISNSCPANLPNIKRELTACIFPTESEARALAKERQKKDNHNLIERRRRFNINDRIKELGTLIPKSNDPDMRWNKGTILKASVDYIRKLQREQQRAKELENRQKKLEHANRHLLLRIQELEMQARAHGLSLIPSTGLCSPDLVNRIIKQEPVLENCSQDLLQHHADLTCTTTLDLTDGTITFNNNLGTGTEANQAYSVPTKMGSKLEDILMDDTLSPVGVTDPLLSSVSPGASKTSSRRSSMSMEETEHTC

cells [19] = format: functional
[20] = inhibitors of Trypanosoma cruzi host-cell infection, confirmation, beta-gal luminescence, NIH3T3 host cells (AID 2630); format: functional, cell-based; settings: Mus musculus
A-375 = assay: MITF: Counter assay: A375 proliferation Measured in Cell-Based System Using Plate Reader - 2084-03_Inhibitor_Dose_DryPowder_Activity. [Related pubchem assays (depositor defined):AID488944]; format: functional; settings: Homo sapiens
cells [21] = assay: cells
[22] = HIV-1 Env-mediated cell fusion inhibitors, dose response, CCR5-tropic Env (AID 2279); format: functional
[23] = biological target: T4, Apoptotic protease-activating factor 1 (Homo sapiens, UniProt O14727); assay: activation of Apaf-1 mediated apoptosis – fluorescent, uHTS hits, dose response (AID 588554); format: functional
T4 sequence (O14727 whole entry): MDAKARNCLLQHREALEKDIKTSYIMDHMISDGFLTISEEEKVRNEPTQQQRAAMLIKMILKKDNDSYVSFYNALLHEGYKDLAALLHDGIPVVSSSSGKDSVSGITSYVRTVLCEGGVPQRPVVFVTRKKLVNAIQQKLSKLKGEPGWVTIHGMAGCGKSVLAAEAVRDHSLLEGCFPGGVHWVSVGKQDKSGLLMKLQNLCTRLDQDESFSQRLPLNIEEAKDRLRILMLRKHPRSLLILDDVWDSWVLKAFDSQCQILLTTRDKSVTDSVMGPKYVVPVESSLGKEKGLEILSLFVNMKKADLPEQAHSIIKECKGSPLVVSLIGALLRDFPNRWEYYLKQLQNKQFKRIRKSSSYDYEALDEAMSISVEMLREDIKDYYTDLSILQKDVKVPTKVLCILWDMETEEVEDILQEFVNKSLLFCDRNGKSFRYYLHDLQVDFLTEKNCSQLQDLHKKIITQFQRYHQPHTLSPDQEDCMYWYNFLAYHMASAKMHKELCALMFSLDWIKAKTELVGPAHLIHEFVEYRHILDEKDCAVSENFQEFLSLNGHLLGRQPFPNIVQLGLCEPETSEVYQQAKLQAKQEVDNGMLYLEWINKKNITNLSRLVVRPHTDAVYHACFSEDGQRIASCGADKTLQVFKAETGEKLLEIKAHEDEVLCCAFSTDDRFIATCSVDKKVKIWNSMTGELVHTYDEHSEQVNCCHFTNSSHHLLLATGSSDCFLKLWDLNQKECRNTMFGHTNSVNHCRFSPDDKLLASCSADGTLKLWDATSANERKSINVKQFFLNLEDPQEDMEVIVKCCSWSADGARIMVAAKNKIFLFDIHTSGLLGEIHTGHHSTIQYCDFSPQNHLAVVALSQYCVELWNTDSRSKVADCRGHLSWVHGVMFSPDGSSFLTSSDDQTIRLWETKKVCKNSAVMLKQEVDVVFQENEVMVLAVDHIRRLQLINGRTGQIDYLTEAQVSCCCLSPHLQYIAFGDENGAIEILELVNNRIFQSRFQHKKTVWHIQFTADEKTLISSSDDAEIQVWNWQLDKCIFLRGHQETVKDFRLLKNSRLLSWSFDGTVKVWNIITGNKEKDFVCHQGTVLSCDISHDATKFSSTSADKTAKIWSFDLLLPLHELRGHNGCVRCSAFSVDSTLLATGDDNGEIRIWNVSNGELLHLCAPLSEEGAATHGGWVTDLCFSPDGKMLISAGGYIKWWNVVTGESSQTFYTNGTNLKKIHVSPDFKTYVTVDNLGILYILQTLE

[24] = biological target: T5, Calpain-2 catalytic subunit (Sus scrofa, UniProt P43367); assay: pig calpain II inhibitor potency, dose response, biochemical, fluorogenic peptide substrate (AID 1420); format: functional
T5 sequence (P43367 whole entry): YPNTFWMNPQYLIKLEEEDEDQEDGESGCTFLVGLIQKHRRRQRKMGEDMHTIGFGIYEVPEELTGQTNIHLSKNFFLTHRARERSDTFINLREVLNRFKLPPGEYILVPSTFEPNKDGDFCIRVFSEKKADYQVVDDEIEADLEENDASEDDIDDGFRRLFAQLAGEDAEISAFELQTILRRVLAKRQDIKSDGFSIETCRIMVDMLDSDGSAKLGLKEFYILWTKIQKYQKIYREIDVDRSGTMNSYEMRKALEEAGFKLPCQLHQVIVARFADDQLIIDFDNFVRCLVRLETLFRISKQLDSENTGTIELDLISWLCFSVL

[25] = biological target: Luciferin 4-monooxygenase (Photuris pensylvanica, UniProt Q27757); assay: firefly luciferase enzyme inhibitors, dose response, counter-screen for HSF-1 reporter inhibitor project, biochemical, Cell Titer Glo, luminescence, cherry-picks (AID 588847)
[26] = NIH-3T3 fibroblast cytotoxicity, dose response, cytotoxicity control, cell-based, fluorescence, Alamar Blue, secondary assay (AID 2327); format: functional;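 further: NIH-3T3 mouse fibroblasts cultured with fluconazole at 8 µg/mL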
[27] = C. albicans growth with fluconazole, confirmation, fluorescence, retest (AID 2467); format: functional, cell-based
[28] = biological target: G-protein coupled receptor 55 (Homo sapiens, UniProt Q9Y2T6); assay: GPR55 antagonists blocking LPI-driven arrestin recruitment, primary screen, imaging, U2OS, beta-arrestin-GFP, LPI agonist (AID 2013); format: functional;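 further: antagonist potency measured as reduced agonist-driven arrestin aggregation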
Sequence of G-protein coupled receptor 55 (Q9Y2T6 whole entry): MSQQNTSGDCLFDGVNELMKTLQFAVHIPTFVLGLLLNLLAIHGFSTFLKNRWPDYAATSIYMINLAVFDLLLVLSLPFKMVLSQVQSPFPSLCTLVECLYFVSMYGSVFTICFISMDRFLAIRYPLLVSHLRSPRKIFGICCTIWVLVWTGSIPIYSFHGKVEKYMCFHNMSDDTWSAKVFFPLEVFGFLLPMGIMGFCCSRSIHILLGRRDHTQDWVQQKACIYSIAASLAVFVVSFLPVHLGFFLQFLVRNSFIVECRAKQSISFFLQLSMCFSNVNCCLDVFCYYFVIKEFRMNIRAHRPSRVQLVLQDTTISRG

[29] = biological target: Serine/threonine-protein phosphatase (Candida dubliniensis (strain CD36 / CBS 7987 / NCPF 3949 / NRRLY-17841) (Yeast), UniProt B9W6M3); assay: calcineurin pathway inhibitors in yeast reporter, dose response, S. cerevisiae, CDRE-lacZ, luminescence, secondary (AID 2388); format: functional, cell-based;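 further: yeast reporter cells carrying a calcineurin-responsive lacZ construct stimulated with calcium chloride; luminescent beta-galactosidase reporter signal in whole cells rather than isolated phosphatase activity; potency for inhibition where a drop in reporter signal means calcineurin blockade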
Sequence of Serine/threonine-protein phosphatase (B9W6M3 whole entry): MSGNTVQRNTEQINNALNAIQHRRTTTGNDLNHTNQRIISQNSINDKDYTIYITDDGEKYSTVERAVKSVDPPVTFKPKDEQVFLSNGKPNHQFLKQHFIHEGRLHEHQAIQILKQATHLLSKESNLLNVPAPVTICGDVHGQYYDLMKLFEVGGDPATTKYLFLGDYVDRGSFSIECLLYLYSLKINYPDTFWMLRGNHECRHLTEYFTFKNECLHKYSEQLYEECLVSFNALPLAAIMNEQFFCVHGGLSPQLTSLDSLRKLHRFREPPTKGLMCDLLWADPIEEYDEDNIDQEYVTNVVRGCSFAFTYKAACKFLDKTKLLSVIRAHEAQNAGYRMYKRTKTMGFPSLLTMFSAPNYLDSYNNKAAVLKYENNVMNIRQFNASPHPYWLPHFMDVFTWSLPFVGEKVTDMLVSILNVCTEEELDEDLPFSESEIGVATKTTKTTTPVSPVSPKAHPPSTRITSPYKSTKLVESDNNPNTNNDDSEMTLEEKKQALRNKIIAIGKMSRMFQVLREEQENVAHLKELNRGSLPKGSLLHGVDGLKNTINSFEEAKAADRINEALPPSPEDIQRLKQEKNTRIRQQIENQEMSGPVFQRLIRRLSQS

[30] = biological target: T6, Ubiquitin-conjugating enzyme E2 N (Homo sapiens, UniProt P61088); format: functional;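 further: Dose-response confirmation in a TR-FRET assay detecting UBC13-driven polyubiquitin chain formation, inhibition measured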
T6 sequence (P61088 whole entry): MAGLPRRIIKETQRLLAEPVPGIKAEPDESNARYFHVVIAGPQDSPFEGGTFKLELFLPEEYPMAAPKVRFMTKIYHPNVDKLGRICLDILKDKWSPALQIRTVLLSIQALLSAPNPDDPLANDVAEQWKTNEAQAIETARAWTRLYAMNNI

[31] = biological target: ATP-dependent molecular chaperone HSP82 (Candida albicans (strain WO-1) (Yeast), UniProt C4YTQ8); assay: loss of DOC-induced GRE-beta-galactosidase reporter signal, dose response, Hsp90 inhibitor project, S. cerevisiae, luminescence (AID 2400); format: functional, cell-based;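 further: beta-galactosidase luminescence from glucocorticoid response element reporter as proxy for Hsp90 function; inhibitor potency where signal loss means Hsp90 inhibition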
Sequence of ATP-dependent molecular chaperone HSP82 (C4YTQ8 whole entry): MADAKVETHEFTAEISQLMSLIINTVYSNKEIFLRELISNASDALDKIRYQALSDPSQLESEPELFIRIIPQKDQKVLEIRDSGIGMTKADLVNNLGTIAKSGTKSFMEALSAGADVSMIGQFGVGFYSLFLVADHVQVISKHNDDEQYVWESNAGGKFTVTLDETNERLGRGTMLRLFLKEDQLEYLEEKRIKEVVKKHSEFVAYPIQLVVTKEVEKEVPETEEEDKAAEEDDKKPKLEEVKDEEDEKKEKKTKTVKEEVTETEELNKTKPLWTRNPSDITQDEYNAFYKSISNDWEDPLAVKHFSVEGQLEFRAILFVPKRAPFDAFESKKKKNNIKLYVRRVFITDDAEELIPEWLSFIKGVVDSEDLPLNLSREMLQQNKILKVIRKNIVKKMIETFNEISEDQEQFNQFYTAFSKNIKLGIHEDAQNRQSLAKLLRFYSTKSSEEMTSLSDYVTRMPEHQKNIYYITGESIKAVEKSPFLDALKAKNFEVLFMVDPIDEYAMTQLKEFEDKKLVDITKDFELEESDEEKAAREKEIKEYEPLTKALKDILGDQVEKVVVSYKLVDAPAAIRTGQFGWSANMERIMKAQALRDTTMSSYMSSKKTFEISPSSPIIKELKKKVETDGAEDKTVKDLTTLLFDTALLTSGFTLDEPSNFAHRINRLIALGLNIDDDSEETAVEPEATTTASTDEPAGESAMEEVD

[32] = Shn3 3'UTR reporter inhibitors, dose response, cell-based, Clone20 osteoblasts, firefly luciferase, cherry-picked (AID 624132); format: functional;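 further: firefly luciferase luminescence from reporter carrying the Shn3 3'UTR in osteoblasts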
[33] = HepG2 cell cytotoxicity, dose response, cytotoxicity control for Shn3 inhibitor project, CellTiter-Glo, cherry-picked (AID 624134); format: functional, cell-based
[34] = control 3'UTR Renilla luciferase suppression, dose response, counter-screen for Shn3 inhibitor project, cell-based, Clone20-Shn3RL, cherry-picked (AID 624133); format: functional

## CCCCCCCCC#CC#CCCCC(=O)O
[1]
  IC50: 96.2 µM (not active)
[2]
  IC50: > 100 µM (not active)
[3]
  IC50: > 100 µM (inactive)
[4]
  IC50: > 100 µM (inactive)

## CN1/C(=C\C(=O)COc2ccc3c(c2)OCO3)C(C)(C)c2ccccc21
[5]
  IC50: 1.48 µM (active)
[6]
  IC50: 0.768 µM (active)
[7]
  EC50: 2.75 µM (active)
[8]
  EC50: > 60 µM (not active)
[9]
  AC50: 4.1 µM (active)
[10]
  AC50: 23.4 µM (active)

## COc1ccc2cc3cc(C(=O)NCCN4CCN(Cc5ccccc5)CC4)oc3nc2c1
[11]
  AC50: 1.51 µM (active)

## CCOc1ccc(S(=O)(=O)Nc2cc(Cl)ccc2O)cc1
Escherichia coli
  AC50: 53.7 µM (active)

## CCc1ccc[n+](-c2[n-]c(=O)sc2C=NNC(=S)Nc2ccccc2)c1
ORF 73
  AC50: 10.1 µM (active)
Keap1/Nrf2
  AC50: 13.6 µM (active)

## O=C(NC12CC3CC(CC(C3)C1)C2)N(Cc1ccccc1)Cc1ccncc1
HEK293 [12]
  EC50: > 59.6 µM (inactive)
HEK293 [13]
  EC50: > 59.6 µM (inactive)

## O=C(CNc1cccc([N+](=O)[O-])c1)N/N=C/c1ccc([N+](=O)[O-])o1
[7]
  EC50: < 0.1 µM (active)
[8]
  EC50: > 60 µM (not active)
[14]
  CC50: 14.1 µM (active)
[15]
  CC50: 10.1 µM (active)
[16]
  AC50: 35.6 µM (active)
Trypanosoma cruzi
  AC50: 0.061 µM (active)
[17]
  CC50: 11.6 µM (active)
[18]
  AC50: 8.63 µM (active)
Cells [19]
  IC50: 5.42 µM (active)
[20]
  EC50: 0.0205 µM (active)
A-375
  AC50: 41.8 µM (active)
Cells [21]
  EC50: 0.055 µM (active)

## O=C(N/N=C/c1cc(Cl)cc([N+](=O)[O-])c1O)NC12CC3CC(CC(C3)C1)C2
[22]
  IC50: 40 µM (active)
[9]
  AC50: 5.03 µM (active)
[23]
  EC50: 6.87 µM (active)

## Cc1nn(-c2cccc(C(F)(F)F)c2)c(Cl)c1/C=N/Nc1cccc(C(=O)O)c1
[24]
  IC50: 11.4 µM (not active)
[25]
  AC50: > 52 µM (inactive)

## Cc1cc(Nc2ccccc2)nc(NCc2ccccc2)n1
[26]
  EC50: > 150 µM (inactive)
[5]
  IC50: 0.927 µM (active)
[6]
  IC50: 0.571 µM (active)
[27]
  EC50: 0.783 µM (active)
[28]
  IC50: 2.05 µM (active)
[29]
  EC50: > 180 µM (inactive)
[30]
  IC50: > 20 µM (inactive)
[31]
  EC50: > 150 µM (inactive)
[32]
  AC50: 1.04 µM (active)
[33]
  AC50: 20.5 µM (active)
[34]
  AC50: 2.54 µM (active)
